In patent US20260365670A1, “EGFR INHIBITORS AND USES THEREOF” (DIZAL (JIANGSU) PHARMACEUTICAL CO., LTD., priority 2022, published 2026):
Read-outs that look alike come from different tables or passages of the source.

Assays:
EGFR wild type = target: T1, EGFR wild type (Homo sapiens, UniProt P00533); test: Inhibition of EGFR wild type biochemical enzymatic activity (HTRF); conditions: EGFR WT, 1 mM ATP, 1 h, room temperature, read-out: IC50 (nM) @WT
T1 construct: purchased Carna Bio
How it was run: (§1)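 Compounds at varying concentrations were tested against each EGFR form using 1 mM ATP and 1 μM TK Substrate-biotin. Reactions ran 1 h at room temperature in Mg2+/Mn2+ buffer with CHAPS, DTT and 0.5% DMSO. Time-resolved fluorescence gave IC50 by four-parameter fit.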

A-431 = test: Cell proliferation GI50, A-431 cells (Table 6); format: cell-based
EGFR Exon19Del = target: T2, EGFR Exon19Del (Homo sapiens, UniProt P00533, DEL746-750); test: Inhibition of EGFR Exon19Del biochemical enzymatic activity (HTRF); conditions: EGFR Del19, 1 mM ATP, 1 h, room temperature, read-out: IC50 @Del19
T2 construct: purchased Carna Bio
How it was run: as §1

PC-9 = test: Cell proliferation assay, PC-9 cells (CellTiter-Glo, 72 hours); format: cell-based; conditions: PC9 cells, CellTiter-Glo, read-out: PC9 GI50
How it was run: (§2)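 GI50 is the concentration giving 50% proliferation inhibition. Growth for this was normalised to a baseline viability reading taken when compound was added, and to DMSO wells. PC-9 (500 cells/well) and mutant-EGFR Ba/F3 (5000 cells/well) are treated after overnight seeding in RPMI1640-based medium.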

[1] = test system: Ba/F3 cells expressing EGFR mutations; test: Cell proliferation assay, Ba/F3 cells expressing EGFR mutations (CellTiter-Glo, 72 hours); format: cell-based; conditions: CellTiter-Glo
How it was run: as §2

EGFR (C797S L858R) = target: T3, EGFR (C797S L858R) (Homo sapiens, UniProt P00533, C797S/L858R); test: Inhibition of EGFR (C797S L858R) biochemical enzymatic activity (HTRF); conditions: EGFR L858-C797S, 1 mM ATP, 1 h, room temperature, read-out: IC50 (nM) @L858-C797S
T3 construct: purchased signalchem
How it was run: as §1

EGFR Exon19Del/T790M = target: T4, EGFR Exon19Del/T790M (Homo sapiens, UniProt P00533, DEL746-750/T790M); test: Inhibition of EGFR Exon19Del/T790M biochemical enzymatic activity (HTRF); conditions: EGFR Del19-T790M, 1 mM ATP, 1 h, room temperature, read-out: IC50 (nM) @Del19-T790M
T4 construct: purchased Carna Bio
How it was run: as §1

EGFR (d746-750 C797S) = target: T5, EGFR (d746-750 C797S) (Homo sapiens, UniProt P00533, C797S/DEL746-750); test: Inhibition of EGFR (d746-750 C797S) biochemical enzymatic activity (HTRF); conditions: EGFR Del19-C797S, 1 mM ATP, 1 h, room temperature, read-out: IC50 (nM) @Del19-C797S
T5 construct: purchased signalchem
How it was run: as §1

EGFR L858R/T790M = target: T6, EGFR L858R/T790M (Homo sapiens, UniProt P00533, L858R/T790M); test: Inhibition of EGFR L858R/T790M biochemical enzymatic activity (HTRF); conditions: EGFR L858R-T790M, 1 mM ATP, 1 h, room temperature, read-out: IC50 (nM) @L858R-T790M
T6 construct: purchased Carna Bio
How it was run: as §1

[2] = target: T7, EGFR[T790M/C797S/d746-750] (Homo sapiens, UniProt P00533, C797S/DEL746-750/T790M); test: Inhibition of EGFR[T790M/C797S/d746-750] biochemical enzymatic activity (HTRF); conditions: EGFR T790M-C797S-Del19, 1 mM ATP, 1 h, room temperature, read-out: IC50 (nM) @T790M - C797S - Del19
T7 construct: purchased Carna Bio
How it was run: as §1

EGFR L858R = target: T8, EGFR L858R (Homo sapiens, UniProt P00533, L858R); test: Inhibition of EGFR L858R biochemical enzymatic activity (HTRF); conditions: 1 mM ATP, 1 h, room temperature, read-out: IC50 (nM) @L858R
T8 construct: purchased Carna Bio
How it was run: as §1

EGFR[T790M/C797S/L858R] = target: T9, EGFR[T790M/C797S/L858R] (Homo sapiens, UniProt P00533, C797S/L858R/T790M); test: Inhibition of EGFR[T790M/C797S/L858R] biochemical enzymatic activity (HTRF); conditions: EGFR T790M-C797S-L858R, 1 mM ATP, 1 h, room temperature, read-out: IC50 (nM) @T790M- C797S - L858R
T9 construct: purchased Carna Bio
How it was run: as §1

[3] = Homo sapiens, A-431, A-431 cells
[4] = Mus musculus, BaF3, 72 h, BaF3 cells, EGFR DEL19-C797S, read-out: DEL19-C797S/BaF3 GI50
[5] = Mus musculus, BaF3, 72 h, BaF3 cells, EGFR DEL19-T790-C797S, read-out: DEL19-T790-C797S/BaF3 GI50
[6] = Mus musculus, BaF3, 72 h, BaF3 cells, EGFR L858R, read-out: L858R/BaF3 GI50
[7] = Mus musculus, BaF3, 72 h, BaF3 cells, EGFR L858R-C797S, read-out: L858R-C797S/BaF3 GI50
[8] = Mus musculus, BaF3, 72 h, BaF3 cells, EGFR L858R-T790-C797S, read-out: L858R-T790-C797S/BaF3 GI50
[9] = Mus musculus, BaF3, 72 h, BaF3 cells, EGFR L858R-T790M, read-out: L858R-T790M/BaF3 GI50
[10] = Mus musculus, BaF3, 72 h, EGFR DEL19-T790M, read-out: DEL19-T790M GI50
[11] = BaF3 cells, EGFR DEL19-C797S, read-out: DEL19-C797S/BaF3 GI50
[12] = BaF3 cells, EGFR DEL19-T790-C797S, read-out: DEL19-T790-C797S/BaF3 GI50
[13] = BaF3 cells, EGFR L858R, read-out: L858R/BaF3 GI50
[14] = BaF3 cells, EGFR L858R-C797S, read-out: L858R-C797S/BaF3 GI50
[15] = BaF3 cells, EGFR L858R-T790-C797S, read-out: L858R-T790-C797S/BaF3 GI50
[16] = BaF3 cells, EGFR L858R-T790M, read-out: L858R-T790M/BaF3 GI50
[17] = EGFR DEL19-T790M, read-out: DEL19-T790M GI50

T4 sequence (P00533 with tags, fused parts or gaps DEL746-750/T790M limits assumed): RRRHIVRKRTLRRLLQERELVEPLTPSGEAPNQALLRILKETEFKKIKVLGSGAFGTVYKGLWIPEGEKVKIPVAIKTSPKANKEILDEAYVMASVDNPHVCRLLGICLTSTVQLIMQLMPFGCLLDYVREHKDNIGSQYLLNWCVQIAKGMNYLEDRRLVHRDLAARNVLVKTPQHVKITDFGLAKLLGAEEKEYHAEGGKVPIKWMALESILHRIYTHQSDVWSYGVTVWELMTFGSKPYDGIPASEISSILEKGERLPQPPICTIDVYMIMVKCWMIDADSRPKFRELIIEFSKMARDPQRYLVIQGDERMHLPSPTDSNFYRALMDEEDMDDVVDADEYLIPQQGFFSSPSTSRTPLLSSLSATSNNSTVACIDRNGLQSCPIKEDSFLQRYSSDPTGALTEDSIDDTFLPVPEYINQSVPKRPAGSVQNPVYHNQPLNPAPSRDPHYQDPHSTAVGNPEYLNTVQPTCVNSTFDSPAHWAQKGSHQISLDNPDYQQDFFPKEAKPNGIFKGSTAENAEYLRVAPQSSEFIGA
T6 sequence (P00533 25-1210 T790M/L858R): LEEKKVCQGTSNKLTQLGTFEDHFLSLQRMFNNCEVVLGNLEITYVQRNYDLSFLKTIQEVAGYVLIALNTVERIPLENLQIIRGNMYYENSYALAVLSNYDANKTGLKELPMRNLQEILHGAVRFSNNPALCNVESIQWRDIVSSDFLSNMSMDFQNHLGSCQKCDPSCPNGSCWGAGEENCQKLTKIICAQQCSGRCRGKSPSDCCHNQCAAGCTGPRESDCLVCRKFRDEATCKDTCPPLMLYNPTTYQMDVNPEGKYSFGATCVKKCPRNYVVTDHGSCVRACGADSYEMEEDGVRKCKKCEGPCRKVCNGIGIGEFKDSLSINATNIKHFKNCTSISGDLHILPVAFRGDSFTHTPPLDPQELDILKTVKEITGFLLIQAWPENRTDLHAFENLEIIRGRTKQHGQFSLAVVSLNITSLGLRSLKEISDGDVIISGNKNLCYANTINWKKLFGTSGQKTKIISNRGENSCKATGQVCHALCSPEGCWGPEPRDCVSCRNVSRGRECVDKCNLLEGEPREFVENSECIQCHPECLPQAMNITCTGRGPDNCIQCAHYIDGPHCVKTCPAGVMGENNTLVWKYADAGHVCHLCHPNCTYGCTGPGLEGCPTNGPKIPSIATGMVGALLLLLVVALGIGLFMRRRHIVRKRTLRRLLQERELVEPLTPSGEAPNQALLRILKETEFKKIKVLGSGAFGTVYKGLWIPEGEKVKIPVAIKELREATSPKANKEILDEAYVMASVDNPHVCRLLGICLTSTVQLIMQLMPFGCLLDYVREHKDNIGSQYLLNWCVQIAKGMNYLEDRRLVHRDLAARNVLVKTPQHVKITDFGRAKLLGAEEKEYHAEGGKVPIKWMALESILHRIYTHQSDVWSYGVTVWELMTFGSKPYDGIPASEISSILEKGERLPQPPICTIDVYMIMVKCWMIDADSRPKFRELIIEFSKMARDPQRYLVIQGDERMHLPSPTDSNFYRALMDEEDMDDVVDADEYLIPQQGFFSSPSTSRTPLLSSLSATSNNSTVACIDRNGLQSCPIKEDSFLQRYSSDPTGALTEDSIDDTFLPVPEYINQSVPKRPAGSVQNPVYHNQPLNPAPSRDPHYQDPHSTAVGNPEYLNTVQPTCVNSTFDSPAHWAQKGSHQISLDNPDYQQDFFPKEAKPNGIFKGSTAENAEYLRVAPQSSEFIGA
T7 sequence (P00533 with tags, fused parts or gaps DEL746-750/T790M/C797S limits assumed): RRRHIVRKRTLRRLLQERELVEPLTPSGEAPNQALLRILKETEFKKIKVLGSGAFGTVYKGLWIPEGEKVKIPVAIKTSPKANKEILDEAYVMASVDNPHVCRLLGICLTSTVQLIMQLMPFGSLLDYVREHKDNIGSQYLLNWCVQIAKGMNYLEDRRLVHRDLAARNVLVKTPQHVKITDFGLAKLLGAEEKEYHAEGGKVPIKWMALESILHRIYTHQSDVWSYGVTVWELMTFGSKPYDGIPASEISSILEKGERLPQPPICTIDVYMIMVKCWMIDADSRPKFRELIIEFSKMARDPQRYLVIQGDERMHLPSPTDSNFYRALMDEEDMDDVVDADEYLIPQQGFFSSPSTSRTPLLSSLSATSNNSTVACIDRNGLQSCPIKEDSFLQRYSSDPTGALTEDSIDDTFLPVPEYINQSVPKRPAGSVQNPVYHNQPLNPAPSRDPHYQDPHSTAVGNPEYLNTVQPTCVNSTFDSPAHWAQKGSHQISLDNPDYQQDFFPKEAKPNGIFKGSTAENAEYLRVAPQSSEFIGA
T2 sequence (P00533 with tags, fused parts or gaps DEL746-750 limits assumed): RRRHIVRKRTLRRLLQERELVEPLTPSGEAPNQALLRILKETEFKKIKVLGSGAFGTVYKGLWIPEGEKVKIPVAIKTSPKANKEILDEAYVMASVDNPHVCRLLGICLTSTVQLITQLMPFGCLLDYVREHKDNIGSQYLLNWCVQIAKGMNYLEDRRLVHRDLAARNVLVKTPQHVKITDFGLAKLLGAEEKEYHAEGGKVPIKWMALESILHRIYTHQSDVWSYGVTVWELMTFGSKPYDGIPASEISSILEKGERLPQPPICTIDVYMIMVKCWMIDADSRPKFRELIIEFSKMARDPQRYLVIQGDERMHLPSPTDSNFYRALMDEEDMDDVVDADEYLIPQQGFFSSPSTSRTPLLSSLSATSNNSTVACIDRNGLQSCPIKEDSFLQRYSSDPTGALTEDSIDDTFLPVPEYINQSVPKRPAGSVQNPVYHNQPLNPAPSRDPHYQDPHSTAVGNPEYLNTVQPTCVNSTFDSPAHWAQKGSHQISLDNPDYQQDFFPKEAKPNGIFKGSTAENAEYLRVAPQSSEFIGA
T8 sequence (P00533 25-1210 L858R): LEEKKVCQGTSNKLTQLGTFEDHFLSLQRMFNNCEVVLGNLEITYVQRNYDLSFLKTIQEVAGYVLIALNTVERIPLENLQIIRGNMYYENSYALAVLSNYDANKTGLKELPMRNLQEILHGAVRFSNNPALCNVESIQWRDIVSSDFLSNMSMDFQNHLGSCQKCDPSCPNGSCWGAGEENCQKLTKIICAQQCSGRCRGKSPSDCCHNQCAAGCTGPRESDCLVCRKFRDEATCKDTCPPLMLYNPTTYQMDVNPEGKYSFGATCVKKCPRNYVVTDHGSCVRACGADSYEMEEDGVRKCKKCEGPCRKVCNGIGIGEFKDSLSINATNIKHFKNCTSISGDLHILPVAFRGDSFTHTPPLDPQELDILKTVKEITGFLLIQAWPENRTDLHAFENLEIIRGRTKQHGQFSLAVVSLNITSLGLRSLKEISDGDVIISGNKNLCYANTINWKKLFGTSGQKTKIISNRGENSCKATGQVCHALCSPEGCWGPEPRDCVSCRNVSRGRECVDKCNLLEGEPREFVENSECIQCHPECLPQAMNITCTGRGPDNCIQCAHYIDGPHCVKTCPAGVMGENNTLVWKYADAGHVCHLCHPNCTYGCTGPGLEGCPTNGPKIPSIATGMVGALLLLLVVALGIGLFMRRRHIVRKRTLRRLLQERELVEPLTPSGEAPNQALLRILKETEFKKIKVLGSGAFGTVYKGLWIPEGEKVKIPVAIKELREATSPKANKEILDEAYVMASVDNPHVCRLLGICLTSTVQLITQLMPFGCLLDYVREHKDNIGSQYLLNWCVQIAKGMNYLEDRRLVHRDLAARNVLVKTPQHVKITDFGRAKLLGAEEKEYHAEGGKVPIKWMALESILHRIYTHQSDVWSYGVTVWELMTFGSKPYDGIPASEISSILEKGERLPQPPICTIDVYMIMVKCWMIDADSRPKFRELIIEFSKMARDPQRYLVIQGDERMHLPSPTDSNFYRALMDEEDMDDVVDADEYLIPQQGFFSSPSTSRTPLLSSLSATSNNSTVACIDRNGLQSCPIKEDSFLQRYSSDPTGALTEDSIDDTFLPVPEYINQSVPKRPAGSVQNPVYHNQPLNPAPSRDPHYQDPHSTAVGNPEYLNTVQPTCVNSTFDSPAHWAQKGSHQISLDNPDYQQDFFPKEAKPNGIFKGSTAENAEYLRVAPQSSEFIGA
T5 sequence (P00533 with tags, fused parts or gaps DEL746-750/C797S limits assumed): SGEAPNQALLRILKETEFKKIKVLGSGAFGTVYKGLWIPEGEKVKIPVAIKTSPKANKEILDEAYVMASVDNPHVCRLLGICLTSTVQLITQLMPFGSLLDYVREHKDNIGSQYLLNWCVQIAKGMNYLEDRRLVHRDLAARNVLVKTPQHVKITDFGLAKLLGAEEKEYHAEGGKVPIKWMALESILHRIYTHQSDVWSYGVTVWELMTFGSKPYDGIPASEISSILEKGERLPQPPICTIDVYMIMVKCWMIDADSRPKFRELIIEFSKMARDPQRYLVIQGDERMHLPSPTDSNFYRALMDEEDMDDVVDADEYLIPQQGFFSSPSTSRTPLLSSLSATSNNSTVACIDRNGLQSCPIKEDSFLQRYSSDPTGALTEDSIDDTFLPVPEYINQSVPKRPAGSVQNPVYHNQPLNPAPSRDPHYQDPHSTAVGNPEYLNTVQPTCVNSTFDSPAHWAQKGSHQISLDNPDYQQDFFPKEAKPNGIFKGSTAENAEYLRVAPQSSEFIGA

Structure (SMILES) | IC50 (EGFR wild type) [nM] | GI50 (A-431; [3]) [nM] | IC50 (EGFR Exon19Del) [nM] | GI50 (PC-9; Homo sapiens, PC-9, 72 h) [nM] | GI50 [1, 4] [nM] | IC50 (EGFR (C797S L858R)) [nM] | IC50 (EGFR Exon19Del/T790M) [nM] | IC50 (EGFR (d746-750 C797S)) [nM] | IC50 (EGFR L858R/T790M) [nM] | IC50 [2] [nM] | IC50 (EGFR L858R) [nM] | IC50 (EGFR[T790M/C797S/L858R]) [nM] | GI50 (PC-9) [nM] | GI50 [1, 11] [nM] | GI50 [1, 12] [nM] | GI50 [1, 13] [nM] | GI50 [1, 14] [nM] | GI50 [1, 15] [nM] | GI50 [1, 16] [nM] | GI50 [1, 17] [nM] | also measured
C[C@@H]1CCCOc2c(cnn2C2CC2)-c2cc(cn(C)c2=O)C(=O)Nc2nc3ccc(N4CCN(C)CC4)cc3n2C1 [Example A22, (11R)-5-Cyclopropyl-11,26-dimethyl-16-(4-methylpiperazin-1-yl)-7-oxa-4,5,13,20,22,26-hexaazapentacyclo[22.3.1.0^{2,6}.0^{13,21}.0^{14,19}]octacosa-1(28),2(6),3,14,16,18,20,24-octaene-23,27-dione] | 1200 | 2290 | 9.1 | 87 | 9.3 | 25 | 6.2 | 6.5 | 6.3 | 6.5 | 86 | 5.8 | – | – | – | – | – | – | – | – | GI50 [1, 5]: 11 nM; GI50 [1, 6]: 30 nM; GI50 [1, 7]: 22 nM; GI50 [1, 8]: 9.6 nM; GI50 [1, 9]: 51 nM; GI50 [1, 10]: 20 nM
CN1CCN(c2ccc3c(c2)nc2n3C34CCC(CN(CCOc5c(cnn5C)-c5cc(cn(C)c5=O)C(=O)N2)C3)C4)CC1 (stereo not drawn) [Example A60A, 15,21-dimethyl-6-(4-methylpiperazin-1-yl)-23-oxa-2,9,11,15,20,21,26-heptaazaheptacyclo[24.4.1.1^{1,28}.1^{13,17}.0^{2,10}.0^{3,8}.0^{18,22}]tritriaconta-3,5,7,9,13,17(33),18(22),19-octaene-12,16-dione] | > 5000 | – | 276 | – | – | > 5000 | 141 | 196 | > 5000 | 117 | > 5000 | > 5000 | 633 | 96 | 166 | 315 | 519 | 403 | 1400 | 285 | GI50 (A-431; A-431 cells): 6550 nM
C[C@@H]1CCCOc2c(cnn2C)-c2cc(cn(C)c2=O)C(=O)Nc2nc3ccc(N4CCC(N5CCN(C)CC5)CC4)cc3n2C1 [Example A29] | 109 | 247 | 3.8 | 7.1 | 0.41 | 7.9 | 7.6 | 2.1 | 15 | 8.2 | 14 | 8.9 | – | – | – | – | – | – | – | – | GI50 [1, 5]: 1 nM; GI50 [1, 6]: 2.1 nM; GI50 [1, 7]: 2.8 nM; GI50 [1, 8]: 0.78 nM; GI50 [1, 9]: 2.5 nM; GI50 [1, 10]: 1.9 nM
Cn1ncc2c1OCCN1CC3CCC(C3)(C1)n1c(nc3ccc(N4CCC(N5CC(F)C5)CC4)cc31)NC(=O)c1cc-2c(=O)n(C)c1 (single isomer, unassigned) [Example A87A] | > 5000 | – | 842 | – | – | > 5000 | > 5000 | 995 | > 5000 | 4000 | 4480 | > 5000 | 452 | 61 | 238 | 178 | 124 | 233 | 311 | 192 | GI50 (A-431; A-431 cells): 382 nM
CN1CCOC2(C1)CN(c1ccc3nc4n(c3c1)C13CCC(CN(CCOc5c(cnn5C)-c5cc(cn(C)c5=O)C(=O)N4)C1)C3)C2 (single isomer, unassigned) [Example A86B] | 110 | 2670 | 4 | – | – | 14 | 9.5 | 3.9 | 12 | 8.5 | 16 | 8.1 | 26 | 0.71 | 1.9 | 2.4 | 5.2 | 4.2 | 10 | 1.2 | –
CN1CCC2(CCN(c3ccc4nc5n(c4c3)C34CCC(CN(CCOc6c(cnn6C)-c6cc(cn(C)c6=O)C(=O)N5)C3)C4)C2)C1 (single isomer, unassigned) [Example A81A] | > 5000 | 1320 | 404 | – | – | > 5000 | > 5000 | 389 | > 5000 | > 5000 | 1530 | > 5000 | 247 | 107 | 258 | 319 | 170 | 381 | 350 | 178 | –
CN1CCN(C2CCN(c3ccc4nc5n(c4c3)C34CCC(CN(CCOc6c(cnn6C)-c6cc(cn(C)c6=O)C(=O)N5)C3)C4)CC2)CC1 (single isomer, unassigned) [Example A106A] | > 5000 | – | 594 | – | – | > 5000 | > 5000 | 446 | > 5000 | 2820 | 1750 | > 5000 | 418 | 113 | 322 | 268 | 143 | 316 | 392 | 355 | GI50 (A-431; A-431 cells): 2500 nM
C[C@@H]1CCCOc2c(cnn2C)-c2cc(cn(C)c2=O)C(=O)Nc2nc3ccc(N4CCC5(CN(C)C5)C4)cc3n2C1 [Example A43] | 295 | 508 | 4.5 | 5.7 | 1 | 8.9 | 3.7 | 2.2 | 13 | 4.4 | 21 | 7.1 | – | – | – | – | – | – | – | – | GI50 [1, 5]: 3.6 nM; GI50 [1, 6]: 2.6 nM; GI50 [1, 7]: 3.4 nM; GI50 [1, 8]: 2.5 nM; GI50 [1, 9]: 9.5 nM; GI50 [1, 10]: 5.2 nM
